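Tested at 5 concentrations; 48 h exposure; 96-well plates; endpoints linearly interpolated, else capped at highest concentration. Abbreviation: GI50, concentration required for 50% inhibition of growth.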 Activity calls are given as the source filed them. Rule as the data show it: active = GI50 up to about 1.1 µM and inactive = higher.
Legend:
Test in all cases: NCI tumour cell line growth inhibition, 48 h
UACC-257 = test system: UACC-257
SR = test system: SR
HCT-15 = test system: HCT-15
DU-145 = test system: DU-145
SF-268 = test system: SF-268
MOLT-4 = test system: MOLT-4
HCC 2998 = test system: HCC 2998
M14 = test system: M14
ACHN = test system: ACHN
COLO 205 = test system: COLO 205
MDA-MB-435 = test system: MDA-MB-435
HT-29 = test system: HT-29
NCI-H460 = test system: NCI-H460
SF-295 = test system: SF-295
UACC-62 = test system: UACC-62
SK-MEL-2 = test system: SK-MEL-2
A549 = test system: A549
NCI-H522 = test system: NCI-H522
OVCAR-5 = test system: OVCAR-5
SN12C = test system: SN12C

| SMILES | GI50 (UACC-257) | GI50 (SR) | GI50 (HCT-15) [µM] | GI50 (DU-145) | GI50 (SF-268) | GI50 (MOLT-4) | GI50 (HCC 2998) | GI50 (M14) | GI50 (ACHN) | GI50 (COLO 205) | GI50 (MDA-MB-435) | GI50 (HT-29) | GI50 (NCI-H460) | GI50 (SF-295) | GI50 (UACC-62) | GI50 (SK-MEL-2) | GI50 (A549) | GI50 (NCI-H522) | GI50 (OVCAR-5) | GI50 (SN12C) |
| --- | --- | --- | --- | --- | --- | --- | --- | --- | --- | --- | --- | --- | --- | --- | --- | --- | --- | --- | --- | --- |
| c1ccc2c3ccn4ccc5c6ccccc6[nH]c5c4c-3nc2c1 | 2 µM (inactive) | 0.0594 µM (active) | 0.344 | 1.43 µM (inactive) | 1.24 µM (inactive) | 1.42 µM (inactive) | 0.453 µM (active) | 1.85 µM (inactive) | 1.43 µM (inactive) | 0.583 µM (active) | 1.45 µM (inactive) | 0.391 µM (active) | 0.498 µM (active) | 1.46 µM (inactive) | 1.77 µM (inactive) | 1.72 µM (inactive) | 0.745 µM (active) | 1.46 µM (inactive) | 1.57 µM (inactive) | 0.735 µM (active) |
| COC(=O)CN(CC(=O)NCCCBr)C1CCCCC1N(CC(=O)OC)CC(=O)OC (stereo not given) | > 100 µM (inactive) | > 100 µM (inactive) | > 100 | > 100 µM (inactive) | > 100 µM (inactive) | > 100 µM (inactive) | > 100 µM (inactive) | – | > 100 µM (inactive) | > 100 µM (inactive) | > 100 µM (inactive) | > 100 µM (inactive) | > 100 µM (inactive) | > 100 µM (inactive) | > 100 µM (inactive) | > 100 µM (inactive) | > 100 µM (inactive) | > 100 µM (inactive) | > 100 µM (inactive) | > 100 µM (inactive) |
| CC1=C(C(=O)N[C@@H](Cc2ccccc2)C(=O)O)N2C(=O)[C@@H](NC(=O)[C@@H](N)CC(C)C)[C@H]2SC1 | > 100 µM (inactive) | > 100 µM (inactive) | > 100 | > 100 µM (inactive) | > 100 µM (inactive) | > 100 µM (inactive) | > 100 µM (inactive) | > 100 µM (inactive) | > 100 µM (inactive) | > 100 µM (inactive) | > 100 µM (inactive) | – | > 100 µM (inactive) | > 100 µM (inactive) | > 100 µM (inactive) | > 100 µM (inactive) | > 100 µM (inactive) | > 100 µM (inactive) | > 100 µM (inactive) | > 100 µM (inactive) |
| O=S1(=O)N=C(SCc2ccccc2)N(c2ccccc2)c2ccncc21 | 31.3 µM (inactive) | 21.2 µM (inactive) | 26.5 | 30.5 µM (inactive) | 36.6 µM (inactive) | 17.7 µM (inactive) | 38.7 µM (inactive) | 36.3 µM (inactive) | 57.7 µM (inactive) | 19.7 µM (inactive) | 41.5 µM (inactive) | 43.9 µM (inactive) | 28.8 µM (inactive) | 34 µM (inactive) | 44.4 µM (inactive) | 34.3 µM (inactive) | 32.6 µM (inactive) | 18.7 µM (inactive) | > 100 µM (inactive) | 42.2 µM (inactive) |
| CC(=O)NC1COC(COC(=O)CCCCCCCCCCNC(=O)c2ccc([N+](=O)[O-])c3c(=O)c4ccccc4[nH]c23)C(O)C1OC(C)C(=O)NC(C(=O)NC(CCC(N)=O)C(=O)OCc1ccccc1)C(C)C (stereo not given) | 15.3 µM (inactive) | 7.08 µM (inactive) | 11.2 | 5.79 µM (inactive) | 7.36 µM (inactive) | 18.6 µM (inactive) | 5.96 µM (inactive) | 35 µM (inactive) | 14.8 µM (inactive) | 18.8 µM (inactive) | 36.8 µM (inactive) | 6.67 µM (inactive) | 16.9 µM (inactive) | 22 µM (inactive) | 25.2 µM (inactive) | 11 µM (inactive) | 25 µM (inactive) | 12.3 µM (inactive) | 36 µM (inactive) | 32.6 µM (inactive) |
| O=C1CSC2(CC(/C=C/c3ccccc3Br)=NN2c2cccc(S(=O)(=O)O)c2)N1c1nc2ccccc2s1 (stereo not given) | > 100 µM (inactive) | 33 µM (inactive) | > 100 | > 100 µM (inactive) | > 100 µM (inactive) | 52 µM (inactive) | > 100 µM (inactive) | > 100 µM (inactive) | > 100 µM (inactive) | > 100 µM (inactive) | 43.1 µM (inactive) | > 100 µM (inactive) | > 100 µM (inactive) | – | 51.5 µM (inactive) | > 100 µM (inactive) | > 100 µM (inactive) | 52 µM (inactive) | > 100 µM (inactive) | > 100 µM (inactive) |
| C=C(C)C(=O)O[C@@H]1C/C(C)=C\[C@H](OC(C)=O)C[C@](C)(O)/C=C2/OC(=O)C(COC(C)=O)=C21 | 1.69 µM (inactive) | 0.0423 µM (active) | 0.212 | 2.37 µM (inactive) | 0.668 µM (active) | 0.428 µM (active) | 0.399 µM (active) | 0.673 µM (active) | 0.556 µM (active) | 0.238 µM (active) | 0.845 µM (active) | 0.237 µM (active) | 0.695 µM (active) | 6.76 µM (inactive) | 0.692 µM (active) | 2.87 µM (inactive) | 2.95 µM (inactive) | 0.196 µM (active) | 1.99 µM (inactive) | 0.783 µM (active) |
| CSC(SC)=C1CC(=O)Nc2ccccc2C1=O | 23.6 µM (inactive) | 27.5 µM (inactive) | 36.1 | 91.6 µM (inactive) | > 100 µM (inactive) | 26.1 µM (inactive) | > 100 µM (inactive) | 80.2 µM (inactive) | > 100 µM (inactive) | 58.2 µM (inactive) | 44.8 µM (inactive) | > 100 µM (inactive) | > 100 µM (inactive) | > 100 µM (inactive) | 24.6 µM (inactive) | 53.3 µM (inactive) | > 100 µM (inactive) | 57 µM (inactive) | > 100 µM (inactive) | 63.1 µM (inactive) |
| CC(=O)CCC[C@H](C)[C@@H](O)[C@@H]1O[C@H]([C@@]2(C)CCC(=O)O2)C[C@H]1C(=O)O | > 100 µM (inactive) | 37.2 µM (inactive) | > 100 | > 100 µM (inactive) | > 100 µM (inactive) | > 100 µM (inactive) | > 100 µM (inactive) | – | > 100 µM (inactive) | > 100 µM (inactive) | > 100 µM (inactive) | > 100 µM (inactive) | > 100 µM (inactive) | > 100 µM (inactive) | > 100 µM (inactive) | > 100 µM (inactive) | > 100 µM (inactive) | > 100 µM (inactive) | > 100 µM (inactive) | > 100 µM (inactive) |
| C/C(=N\Nc1ncnc2ccccc12)c1ccccn1 | < 0.0161 µM (active) | 0.0317 µM (active) | < 0.0197 | 0.0718 µM (active) | < 0.0177 µM (active) | < 0.0136 µM (active) | 0.105 µM (active) | 0.02 µM (active) | 0.0169 µM (active) | < 0.01 µM (active) | 0.195 µM (active) | 0.0182 µM (active) | 0.0294 µM (active) | 0.0803 µM (active) | 0.0948 µM (active) | 2.79 µM (inactive) | 0.0316 µM (active) | < 0.01 µM (active) | 1.61 µM (inactive) | 0.026 µM (active) |
| O=C1OCC/C1=C/c1ccc(/N=N/c2c(O)ccc3ccccc23)cc1 | 20.7 µM (inactive) | 15.2 µM (inactive) | 24.9 | 17.7 µM (inactive) | 19.8 µM (inactive) | 19.5 µM (inactive) | 20.9 µM (inactive) | 27.5 µM (inactive) | 17.5 µM (inactive) | 25.1 µM (inactive) | 23.1 µM (inactive) | 19.4 µM (inactive) | 19.7 µM (inactive) | 25.3 µM (inactive) | 29.5 µM (inactive) | 26.7 µM (inactive) | 18.6 µM (inactive) | 22.9 µM (inactive) | 22.3 µM (inactive) | 18.2 µM (inactive) |
| Nc1ccc(Oc2ccc(C3(c4ccc(Oc5ccc(N)cc5)cc4)C4CC5C6CC7CC5C3C(C7)C6C4)cc2)cc1 | > 58.6 µM (inactive) | 9.2 µM (inactive) | 20.1 | 9.04 µM (inactive) | > 53.2 µM (inactive) | 6.08 µM (inactive) | 1.07 µM (active) | 3.87 µM (inactive) | 48.5 µM (inactive) | 42.4 µM (inactive) | 19 µM (inactive) | 0.774 µM (active) | 21.1 µM (inactive) | 54.8 µM (inactive) | 38.4 µM (inactive) | > 100 µM (inactive) | 0.706 µM (active) | > 81.7 µM (inactive) | > 100 µM (inactive) | 12.1 µM (inactive) |
| Cc1cc(-c2nc3cc(F)c(F)cc3s2)ccc1N | > 73.1 µM (inactive) | > 100 µM (inactive) | > 61.4 | > 67.6 µM (inactive) | > 100 µM (inactive) | > 49.9 µM (inactive) | > 42.4 µM (inactive) | > 55.2 µM (inactive) | > 79.1 µM (inactive) | 23.7 µM (inactive) | > 55.3 µM (inactive) | > 61.1 µM (inactive) | > 100 µM (inactive) | > 48.2 µM (inactive) | > 100 µM (inactive) | > 58.5 µM (inactive) | > 55.5 µM (inactive) | 48.6 µM (inactive) | > 53.8 µM (inactive) | > 74.6 µM (inactive) |
| CC(C)c1cc2c(c(O)c1O)[C@@]1(C(=O)O)CCCC(C)(C)[C@@H]1CC2 [CARNOSIC ACID] | 14.6 µM (inactive) | 5.33 µM (inactive) | 27.3 | 25.1 µM (inactive) | 18.8 µM (inactive) | 11.8 µM (inactive) | 13.2 µM (inactive) | – | 13.4 µM (inactive) | 24.2 µM (inactive) | 16.3 µM (inactive) | 16.3 µM (inactive) | 19.9 µM (inactive) | 22.4 µM (inactive) | 13.9 µM (inactive) | 18.9 µM (inactive) | 18.2 µM (inactive) | 13 µM (inactive) | 20.8 µM (inactive) | 24 µM (inactive) |
